Test results reported in article PMC11627005 (Febs Letters, 2024).

Tests used:
Assay type in all cases: biochemical
[1] = target: E. coli respiratory complex I (proton-pumping NADH:ubiquinone oxidoreductase, NuoA to NuoN) (Escherichia coli, UniProt P0AFC7+P0AFD4+P33599, P33599:D325A)
[2] = target: E. coli respiratory complex I (proton-pumping NADH:ubiquinone oxidoreductase, NuoA to NuoN) (Escherichia coli, UniProt P0AFC7+P0AFD4+P33599, P33599:D325Q)
[3] = target: E. coli respiratory complex I (proton-pumping NADH:ubiquinone oxidoreductase, NuoA to NuoN) (Escherichia coli, UniProt P0AFC7+P0AFD4+P33599, P33599:D325N)
[4] = target: E. coli respiratory complex I (proton-pumping NADH:ubiquinone oxidoreductase, NuoA to NuoN) (Escherichia coli, UniProt P0AFC7+P0AFD4+P33599, P33599:D325E)
[5] = target: E. coli respiratory complex I (proton-pumping NADH:ubiquinone oxidoreductase, NuoA to NuoN) (Escherichia coli, UniProt P0AFC7+P0AFD4+P33599)

## C/C=C(\C)[C@H](O)[C@H](C)/C=C(C)/C=C/C/C(C)=C/Cc1nc(OC)c(OC)c(O)c1C [piericidin A]
[1]
  IC50: 9.3 ± 0.8 µM
[2]
  IC50: 16.9 ± 1.2 µM
[3]
  IC50: 17.4 ± 0.6 µM
[4]
  IC50: 6.2 ± 0.5 µM
[5]
  IC50: 3.5 ± 0.2 µM
